What was measured:
renin = molecular target: T1, renin (Homo sapiens, UniProt P00797); test: in vitro inhibition of renin, radio immunoassay detection of Angiotensin I from an angiotensinogen-like substrate; type: biochemical; settings: 10^-6 M concentration of test compound
T1 sequence (P00797 67-406): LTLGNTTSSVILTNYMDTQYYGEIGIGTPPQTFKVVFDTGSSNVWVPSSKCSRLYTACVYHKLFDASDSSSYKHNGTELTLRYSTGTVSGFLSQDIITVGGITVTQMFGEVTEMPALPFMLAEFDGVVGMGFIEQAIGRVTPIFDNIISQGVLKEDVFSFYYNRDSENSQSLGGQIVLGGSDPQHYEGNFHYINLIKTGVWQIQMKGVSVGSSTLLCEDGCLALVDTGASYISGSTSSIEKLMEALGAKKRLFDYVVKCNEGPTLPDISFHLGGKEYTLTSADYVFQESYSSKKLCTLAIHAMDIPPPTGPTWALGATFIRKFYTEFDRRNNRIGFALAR
From the text: The potent in vitro inhibition of the aspartyl protease renin was established using standard radio immunoassay techniques for the detection of Angiotensin I from an angiotensinogen-like substrate [Haber et al. (1969), J. Clin. Endocrinol. 29, 1349]. The results of these standard test procedures appears at the end of each Example of preparation of the relevant compound, as the percent inhibition of renin activity at […] concentration of test compound. The compounds of this invention have also shown strong resistance to breakdown by degradative enzymes such as chymotrypsin, following the procedure of Thaisrivongs et al. (1987) J. Med. Chem. 30, 536-541. […] Even after a 24 hour incubation, 68% of the compound of Example 1 remained. In accord with their ability to inhibit the enzyme renin, the compounds of this invention show plasma renin lowering effects and an antihypertensive action in a furosemide-stimulated high-renin model [De […]. et al. (1985), J. Cardiovascular Pharmacology 7, (Suppl. 4), S58-S61] with conscious rhesus monkeys, utilizing intravenous as well as oral dosing. For example, the product of Example 1 administered at 5 mg/kg iv lowered plasma renin activity (PRA) from 45 ng/ml/min to 5 ng/ml/min one half hour post-administration. Mean arterial pressure (MAP) was lowered 25 mm in that time period.

[1] = resistance to breakdown on incubation with chymotrypsin; type: in vitro ADME; settings: read-out: remaining compound after incubation with chymotrypsin; for remaining at 1 h: incubation for one hour
From the text: The potent in vitro inhibition of the aspartyl protease renin was established using standard radio immunoassay techniques for the detection of Angiotensin I from an angiotensinogen-like substrate [Haber et al. (1969), J. Clin. Endocrinol. 29, 1349]. The results of these standard test procedures appears at the end of each Example of preparation of the relevant compound, as the percent inhibition of renin activity at […] concentration of test compound. The compounds of this invention have also shown strong resistance to breakdown by degradative enzymes such as chymotrypsin, following the procedure of Thaisrivongs et al. (1987) J. Med. Chem. 30, 536-541. For example, the compound of Example 1 was nearly unchanged upon incubation with chymotrypsin for one hour (93% remaining compound) whereas Boc-Phe Leu-ACHBA-OMe was extensively degraded (22% remaining compound) in the same time period. Even after a 24 hour incubation, 68% of the compound of Example 1 remained. In accord with their ability to inhibit the enzyme renin, the compounds of this invention show plasma renin lowering effects and an antihypertensive action in a furosemide-stimulated high-renin model [De Claviere, M. et al. (1985), J. Cardiovascular Pharmacology 7, (Suppl. 4), S58-S61] with conscious rhesus monkeys, utilizing intravenous as well as oral dosing. For example, the product of Example 1 administered at 5 mg/kg iv lowered plasma renin activity (PRA) from 45 ng/ml/min to 5 ng/ml/min one half hour post-administration. Mean arterial pressure (MAP) was lowered 25 mm in that time period.

[2] = tested on: conscious rhesus monkeys (furosemide-stimulated high-renin model); test: furosemide-stimulated high-renin model with conscious rhesus monkeys; type: in vivo
[3] = orally at 50 ng/kg, one-half hour post-administration

Row | % I, percent inhibition of renin activity (renin) | Compound | other results
1 | 96% | Beta-[[2-[[2-[5-oxo-5H-imidazo[1,2-a]imidazol-6(7H)-yl]-1-oxo-3-phenylpropyl]amino]-4-methyl-1-oxo-pentyl]amino]-alpha-hydroxycyclohexanebutanoic acid 1-methylethyl ester [Example 15] | –
2 | 91% | CC(C)C[C@H](NC(=O)[C@H](Cc1ccccc1)N1C[C@@H]2CCCN2C1=O)C(=O)NC(CC1CCCCC1)C(O)C(=O)OC(C)C (stereo partly drawn) [Example 16, Beta-[[2-[[2-[(7aS)-tetrahydro-3-oxo-1H-pyrrolo[1,2-c]imidazol-2(3H)-yl]-1-oxo-3-phenylpropyl]amino]-4-methyl-1-oxo-pentyl]amino]-alpha-hydroxycyclohexanebutanoic acid 1-methylethyl ester] | –
3 | 45% | COC(=O)C(O)C(CC1CCCCC1)NC(=O)[C@H](CC(C)C)NC(=O)[C@H](Cc1ccccc1)N1C(=O)c2ccccc2C1=O (stereo partly drawn) [Example 6, Beta-[[2-[[2-(1,3-dihydro-1,3-dioxo-2H-isoindol-2-yl)-1-oxo-3-phenylpropyl]amino]-4-methyl-1-oxopentyl]amino]-alphahydroxycyclohexanebutanoic acid methyl ester] | –
4 | 99% | CCCC[C@H](NC(=O)[C@H](Cc1ccccc1)N1Cc2ccccc2C1=O)C(=O)NC(CC1CCCCC1)C(O)C(=O)OC(C)C (stereo partly drawn) [Example 12, Beta-[[2-[[2-[1,3-dihydro-1-oxo-2H-isoindol-2-yl]-1-oxo-3-phenylpropyl]amino]-1-oxo-hexyl]amino]-alphahydroxycyclohexanebutanoic acid 1-methylethyl ester] | –
5 | 89% | COC(=O)C(O)C(CC1CCCCC1)NC(=O)[C@H](CC(C)C)NC(=O)[C@H](Cc1ccccc1)N1Cc2ncccc2C1=O (stereo partly drawn) [Example 3, Beta-[[2-[[-2-(1,3-dihydro-1-oxo-2H-pyrrolo[3,4-b]pyridin-2-yl)-1-oxo-3-phenylpropyl]amino]-4-methyl-1-oxopentyl]amino]-alpha-hydroxycyclohexanebutanoic acid methyl ester] | –
6 | 9% | COC(=O)C(O)C(CC1CCCCC1)NC(=O)[C@H](Cc1c[nH]cn1)NC(=O)[C@H](Cc1ccccc1)N1C(=O)c2ccccc2C1=O (stereo partly drawn) [Example 7, Beta-[[2-[[2-(1,3-dihydro-1,3-dioxo-2H-isoindol-2-yl)-1-oxo-3-phenylpropyl]amino]-3-(1H-imidazol-4-yl)-1-oxopropyl]amino]-alphahydroxycyclohexanebutanoic acid methyl ester] | –
7 | 98% | CC(C)C[C@H](NC(=O)[C@H](Cc1ccccc1)N1Cc2ccccc2C1=O)C(=O)NC(CC1CCCCC1)C(O)C(=O)OC(C)C (single isomer, unassigned) [Example 2 Diastereomer A, Beta-[[2-[[2-[1,3-dihydro-1-oxo-2H-isoindol-2-yl]-1-oxo-3-phenylpropyl]amino]-4-methyl-1-oxo-pentyl]amino]-alpha-hydroxycyclohexanebutanoic acid 1-methylethyl ester] | –
8 | 86% | COC(=O)C(O)C(CC1CCCCC1)NC(=O)[C@H](CC(C)C)NC(=O)[C@H](Cc1ccccc1)N1CC(C)(C)OC1=O (stereo partly drawn) [Example 10, Beta-[[2-[[2-[5,5-dimethyl-2-oxo-3-oxazolidinyl]-1-oxo-3-phenylpropyl]amino]-4-methyl-1-oxo-pentyl]amino]-alphahydroxycyclohexanebutanoic acid methyl ester] | –
9 | 92% | CC(C)C[C@H](NC(=O)[C@H](Cc1ccccc1)N1Cc2cccc3cccc(c23)C1=O)C(=O)NC(CC1CCCCC1)C(O)C(=O)OC(C)C (stereo partly drawn) [Example 13, Beta-[[2-[[2-[1,3-dihydro-1-oxo-2H-benzisoquinolin-2-yl]-1-oxo-3-phenylpropyl]amino]-4-methyl-1-oxo-pentyl]amino]-alphahydroxycyclohexanebutanoic acid 1-methylethyl ester] | –
10 | 76% | COC(=O)C(O)C(CC1CCCCC1)NC(=O)[C@H](CC(C)C)NC(=O)[C@H](Cc1ccccc1)N1C(=O)OC(C)(C)C1C (stereo partly drawn) [Example 9, Beta-[[2-[[2-[4,5,5-trimethyl-2-oxo-3-oxazolidinyl]-1-oxo-3-phenylpropyl]amino]-4-methyl-1-oxo-pentyl]amino]-alphahydroxycyclohexanebutanoic acid methyl ester] | –
11 | 74% | COC(=O)C(O)C(CC1CCCCC1)NC(=O)[C@H](CC(C)C)NC(=O)[C@H](Cc1ccccc1)N1C(=O)c2cccc3cccc(c23)C1=O (some centres unmarked) [Example 8] | –
12 | 83% | CC(C)OC(=O)C(O)C(CC1CCCCC1)NC(=O)[C@H](Cc1c[nH]cn1)NC(=O)[C@H](Cc1ccccc1)N1Cc2ccccc2C1=O (stereo partly drawn) [Example 5, Beta-[[2-[[2-(1,3-dihydro-1-oxo-2H-isoindol-2-yl)-1-oxo-3-phenylpropyl]amino]-3-(1H-imidazol-4-yl)-1-oxopropyl]amino]-alphahydroxycyclohexanebutanoic acid 1-methylethyl ester] | –
13 | – | COC(=O)C(O)C(CC1CCCCC1)NC(=O)[C@H](CC(C)C)NC(=O)[C@H](Cc1ccccc1)NC(=O)OC(C)(C)C (stereo partly drawn) [Boc-Phe Leu-ACHBA-OMe, N-tertiary butyloxycarbonyl-Phe-Leu-3-amino-4-cyclohexyl-2-hydroxybutanoic acid methyl ester, reference compound] | remaining at 1 h [1]: 22%
14 | 93% | CC(C)C[C@H](NC(=O)[C@H](Cc1ccccc1)N1CCCC1=O)C(=O)NC(CC1CCCCC1)C(O)C(=O)OC(C)C (stereo partly drawn) [Example 14, Beta-[[2-[[2-[2-oxo-1-pyrrolidinyl]-1-oxo-3-phenylpropyl]amino]-4-methyl-1-oxo-pentyl]amino]-alpha-hydroxycyclohexanebutanoic acid 1-methylethyl ester] | –
15 | 84% | COC(=O)C(O)C(CC1CCCCC1)NC(=O)[C@H](Cc1c[nH]cn1)NC(=O)[C@H](Cc1ccccc1)N1Cc2ccccc2C1=O (stereo partly drawn) [Example 4, Beta-[[2-[[2-(1,3-dihydro-1-oxo-2H-isoindol-2-yl)-1-oxo-3-phenylpropyl]amino]-3-(1H-imidazol-4-yl)-1-oxopropyl]amino]-alpha-hydroxycyclohexane butanoic acid methyl ester] | –
16 | 99% | CCC[C@H](NC(=O)[C@H](Cc1ccccc1)N1Cc2ccccc2C1=O)C(=O)NC(CC1CCCCC1)C(O)C(=O)OC(C)C (stereo partly drawn) [Example 11, Beta-[[2-[[2-[1,3-dihydro-1-oxo-2H-isoindol-2-yl]-1-oxo-3-phenylpropyl]amino]-1-oxo-pentyl]amino]-alphahydroxycyclohexanebutanoic acid 1-methylethyl ester] | –
17 | 97% | COC(=O)C(O)C(CC1CCCCC1)NC(=O)[C@H](CC(C)C)NC(=O)[C@H](Cc1ccccc1)N1Cc2ccccc2C1=O (stereo partly drawn) [Example 1, Beta-[[2-[[2-[1,3-dihydro-1-oxo-2H-isoindol-2-yl]-1-oxo-3-phenylpropyl]amino]-4-methyl-1-oxo-pentyl]amino]-alpha-hydroxycyclohexanebutanoic acid methyl ester] | lowering of mean arterial pressure (MAP) ([2]; 5 mg/kg iv, one half hour post-administration): 25 mm; plasma renin activity (PRA) after administration ([2]; 5 mg/kg iv, one half hour post-administration, lowered from 45 ng/ml/min): 5 ng/mL/min; change in MAP [2, 3]: no significant change; decrease of PRA [2, 3]: 50%; remaining at 24 h ([1]; 24 hour incubation): 68%; remaining at 1 h [1]: 93%

Source: patent US5023338A, “Renin inhibitors” (American Home Products Corporation, priority 1990, dated 1991)
